In brackets after ≈: the same amount, converted by molar mass.

The MIC is the smallest concentration in the dilution series that meets the test's criterion for growth inhibition. Read a low MIC as a more susceptible organism. Usually IC50 stands for the concentration at which inhibition is half-maximal.

Sequence of PBP2x 5204 (P59676 49-750): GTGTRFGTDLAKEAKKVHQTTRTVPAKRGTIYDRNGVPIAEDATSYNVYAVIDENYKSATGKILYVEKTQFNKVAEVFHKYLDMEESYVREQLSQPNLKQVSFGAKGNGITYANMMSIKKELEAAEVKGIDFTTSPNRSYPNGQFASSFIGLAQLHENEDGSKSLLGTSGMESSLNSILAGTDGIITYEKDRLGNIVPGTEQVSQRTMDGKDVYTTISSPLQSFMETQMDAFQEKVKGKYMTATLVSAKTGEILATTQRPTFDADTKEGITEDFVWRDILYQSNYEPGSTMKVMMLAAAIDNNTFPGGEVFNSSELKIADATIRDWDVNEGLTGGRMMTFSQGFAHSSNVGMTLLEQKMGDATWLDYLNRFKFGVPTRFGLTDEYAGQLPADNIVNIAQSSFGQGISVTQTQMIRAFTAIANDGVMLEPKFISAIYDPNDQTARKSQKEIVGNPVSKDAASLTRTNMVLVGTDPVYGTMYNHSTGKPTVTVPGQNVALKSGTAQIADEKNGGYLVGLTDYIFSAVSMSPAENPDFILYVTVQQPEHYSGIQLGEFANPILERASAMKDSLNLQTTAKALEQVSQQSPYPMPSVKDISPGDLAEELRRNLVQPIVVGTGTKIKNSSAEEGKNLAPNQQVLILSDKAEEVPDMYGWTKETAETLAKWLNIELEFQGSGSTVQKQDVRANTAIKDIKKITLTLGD

The target of one test is PBP5fm (Enterococcus faecium, UniProt Q47759). The test can be described thus: PBP5fm enzymatic inhibition assay (fluorescein-labeled ampicillin, residual penicillin binding activity). It is filed as biochemical, Enterococcus faecium D63r. To be noted: 4 h; residual activity of the enzyme at 1 mM inhibitor; 0.01% Triton X-100; read-out: PBP5fm RA [%]. On the procedure: (§1) PBP2a from Staphylococcus aureus ATCC 43300 and PBP5fm from Enterococcus faecium D63r were overproduced and purified as described previously, [18].
Sequence of PBP5fm (Q47759 entry or part of it): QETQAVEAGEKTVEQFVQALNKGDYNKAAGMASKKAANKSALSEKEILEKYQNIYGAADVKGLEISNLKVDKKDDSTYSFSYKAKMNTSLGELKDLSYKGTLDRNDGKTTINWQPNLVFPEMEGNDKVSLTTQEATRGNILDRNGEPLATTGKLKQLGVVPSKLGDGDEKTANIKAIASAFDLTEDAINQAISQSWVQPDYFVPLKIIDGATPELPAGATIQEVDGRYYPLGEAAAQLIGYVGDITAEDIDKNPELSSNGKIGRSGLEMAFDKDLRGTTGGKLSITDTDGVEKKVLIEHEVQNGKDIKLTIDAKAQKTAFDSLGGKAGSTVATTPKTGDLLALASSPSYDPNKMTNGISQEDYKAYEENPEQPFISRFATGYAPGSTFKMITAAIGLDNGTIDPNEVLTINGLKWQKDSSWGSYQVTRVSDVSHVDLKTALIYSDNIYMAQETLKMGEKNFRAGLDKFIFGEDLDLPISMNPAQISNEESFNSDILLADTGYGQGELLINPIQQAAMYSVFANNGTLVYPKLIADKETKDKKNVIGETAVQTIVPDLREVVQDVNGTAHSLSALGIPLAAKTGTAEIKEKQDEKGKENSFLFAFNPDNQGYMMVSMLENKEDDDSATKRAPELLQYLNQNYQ
(§2) Each of the purified PBPs (2.5 µM) were first incubated with 1 mM potential inhibitor in 100 mM phosphate buffer, 0.01% Triton X-100[19], pH 7, for 4 h at 30°C. Then, 25 µM fluorescein-labeled ampicillin[20] was added to detect the residual penicillin binding activity (RA). The samples were further incubated for 30 min at 37°C in a total volume of 20 µL. Denaturation buffer was added (0.1 M Tris/HCl, pH 6.8, containing 25% glycerol, 2% SDS, 20% β-mercaptoethanol and 0.02% bromophenol blue) and the samples were heated to 100°C for 1 min. The samples were then loaded onto a 10% SDS-acrilamide gel (10×7 cm) and electrophoresis was performed for 45 min at 180 V (12 mA). Detection and quantification of the RAs were with Molecular Image FX equipment and Quantity One software (BioRad, Hercules, CA, USA). Three independent experiments were carried out for each inhibitor.
`O=S(=O)(Nc1ccc(O)cc1)c1cccc2cccnc12` [compound 3, N-(4-Hydroxyphenyl)quinoline-8-sulfonamide]: the activity at 1000 µM amounted to 65%.
`CCOc1ccc(NS(=O)(=O)c2ccc(C(=O)O)cc2)cc1` [compound 4, 4-(N-(4-Ethoxyphenyl)sulfamoyl)benzoic acid]: the activity at 1000 µM was found to be 100%.
Consider `CCOc1ccc(S(=O)(=O)Nc2ccc(C(=O)O)cc2)cc1` [compound 5, 4-(4-Ethoxyphenylsulfonamido)benzoic acid], for which the activity at 1000 µM was determined as 73%.
On the same count and under the same terms, to `CCCOc1ccc(C(=O)Nc2ccc(Br)cc2C(=O)O)cc1` [compound 6, 5-Bromo-2-(4-propoxybenzamido)benzoic acid] belongs 68%.

The subject of the next test is Streptococcus pneumoniae D39. The test can be described thus: In-vitro antibacterial activity (MIC, broth microdilution).
Settings: not given
Format: cell-based. The method, then: (§3) Determination of the antibacterial activities was carried out on microtiter plates, in 200 µL (final volume) of Müeller-Hinton Broth (MHB), following EUCAST (European Committee on Antimicrobial Susceptibility testing)/CLSI (Clinical and Laboratory Standard Institute) recommended procedures, [25]. The compounds were solubilized in MHB, just before use. Inocula were prepared for each strain by resuspending isolated colonies from 18 h cultured plates. Equivalents of 0.5 Mac Farland turbidity standards (approximately 1×10^8 CFU mL^−1) were prepared in saline solution ([…]) and then diluted 200-fold in MBH.
Regarding `CCCOc1ccc(C(=O)Nc2ccc(Br)cc2C(=O)O)cc1` [compound 6, 5-Bromo-2-(4-propoxybenzamido)benzoic acid], the MIC was 16 µg/mL (≈ 42.3 µM).

In another test the test system is Staphylococcus aureus ATCC 43300 (MRSA). The description is as above. It is filed as cell-based.
Settings: not given
The method, then:
as §3
`CCCOc1ccc(C(=O)Nc2ccc(Br)cc2C(=O)O)cc1` [compound 6, 5-Bromo-2-(4-propoxybenzamido)benzoic acid]: the minimum inhibitory concentration (MIC) is 128 µg/mL (≈ 338 µM).

Another test deals with Pseudomonas aeruginosa ATCC 27853. The test is described as above. It is filed as cell-based. To be noted: ATCC27853. The method, then:
as §3
In turn, `CCCOc1ccc(C(=O)Nc2ccc(Br)cc2C(=O)O)cc1` [compound 6, 5-Bromo-2-(4-propoxybenzamido)benzoic acid] came in with an MIC of over 512 µg/mL.

The test system of another test is Enterococcus faecalis ATCC 29212. The test is described as above. Format: cell-based. To be noted: ATCC29212. On the procedure:
as §3
Consider `CCCOc1ccc(C(=O)Nc2ccc(Br)cc2C(=O)O)cc1` [compound 6, 5-Bromo-2-(4-propoxybenzamido)benzoic acid], for which inhibition of growth (MIC) required 32 µg/mL (≈ 84.6 µM).

For the next test, the system named is Staphylococcus epidermidis ATCC 12228. Described as above. Format: cell-based. To be noted: ATCC12228. The method, then: as §3
`CCCOc1ccc(C(=O)Nc2ccc(Br)cc2C(=O)O)cc1` [compound 6, 5-Bromo-2-(4-propoxybenzamido)benzoic acid] came in with an MIC of 16 µg/mL (≈ 42.3 µM).

For the next test, the system named is Citrobacter freundii ATCC 8090. Described as above. Format: cell-based. To be noted: ATCC8090. The method, then:
as §3
`CCCOc1ccc(C(=O)Nc2ccc(Br)cc2C(=O)O)cc1` [compound 6, 5-Bromo-2-(4-propoxybenzamido)benzoic acid] returned an MIC of over 512 µg/mL.

For another test, the system named is Streptococcus pneumoniae ATCC 49619. The description is as above. Format: cell-based. To be noted: ATCC49619. On the procedure: as §3
Compound `CCCOc1ccc(C(=O)Nc2ccc(Br)cc2C(=O)O)cc1` [compound 6, 5-Bromo-2-(4-propoxybenzamido)benzoic acid] registered an MIC of 32 µg/mL (≈ 84.6 µM).

The subject of the next test is Bacillus subtilis ATCC 6633. The description is as above. It is filed as cell-based. The conditions noted are these: ATCC6633. The method, then: as §3
Regarding `CCCOc1ccc(C(=O)Nc2ccc(Br)cc2C(=O)O)cc1` [compound 6, 5-Bromo-2-(4-propoxybenzamido)benzoic acid], it took 128 µg/mL (≈ 338 µM) to inhibit growth (MIC).

The subject of another test is Listeria monocytogenes ATCC 14780. The test is described as above. Format: cell-based. The conditions noted are these: ATCC14780. On the procedure: as §3
Compound `CCCOc1ccc(C(=O)Nc2ccc(Br)cc2C(=O)O)cc1` [compound 6, 5-Bromo-2-(4-propoxybenzamido)benzoic acid] had an MIC of 64 µg/mL (≈ 169 µM).

In the next test the test system is Streptococcus pneumoniae ATCC 33400. Described as above. Format: cell-based. To be noted: ATCC33400. The method, then: as §3
In turn, `CCCOc1ccc(C(=O)Nc2ccc(Br)cc2C(=O)O)cc1` [compound 6, 5-Bromo-2-(4-propoxybenzamido)benzoic acid] came in with an MIC of 64 µg/mL (≈ 169 µM).

For another test, the system named is Enterococcus hirae ATCC 8790. The description is as above. It is filed as cell-based. The conditions noted are these: ATCC8790. The method, then: as §3
`CCCOc1ccc(C(=O)Nc2ccc(Br)cc2C(=O)O)cc1` [compound 6, 5-Bromo-2-(4-propoxybenzamido)benzoic acid] yielded a minimal inhibitory concentration (MIC) of 32 µg/mL (≈ 84.6 µM).

In the next test the test system is Listeria innocua ATCC 33090. The description is as above. Format: cell-based. To be noted: ATCC33090. The method, then:
as §3
The compound `CCCOc1ccc(C(=O)Nc2ccc(Br)cc2C(=O)O)cc1` [compound 6, 5-Bromo-2-(4-propoxybenzamido)benzoic acid] gave a minimal inhibitory concentration (MIC) of 64 µg/mL (≈ 169 µM).

The subject of the next test is Enterococcus faecalis ATCC 7937. Described as above. It is filed as cell-based. To be noted: ATCC7937. On the procedure: as §3
The compound `CCCOc1ccc(C(=O)Nc2ccc(Br)cc2C(=O)O)cc1` [compound 6, 5-Bromo-2-(4-propoxybenzamido)benzoic acid] came in with an MIC of 64 µg/mL (≈ 169 µM).

Another test concerns Escherichia coli ATCC 8739. The description is as above. Format: cell-based. The conditions noted are these: ATCC8739. On the procedure: as §3
Take `CCCOc1ccc(C(=O)Nc2ccc(Br)cc2C(=O)O)cc1` [compound 6, 5-Bromo-2-(4-propoxybenzamido)benzoic acid]: the minimum inhibitory concentration (MIC) was over 512 µg/mL.

In the next test the test system is Enterococcus faecium ATCC 19434. Described as above. It is filed as cell-based. To be noted: ATCC19434. The method, then:
as §3
`CCCOc1ccc(C(=O)Nc2ccc(Br)cc2C(=O)O)cc1` [compound 6, 5-Bromo-2-(4-propoxybenzamido)benzoic acid]: the lowest concentration to inhibit growth (MIC) was 256 µg/mL (≈ 677 µM).

The next test relates to Staphylococcus aureus mp 1 (inducible MRSA). Described as above. It is filed as cell-based.
Settings: not given
The method, then: as §3
`CCCOc1ccc(C(=O)Nc2ccc(Br)cc2C(=O)O)cc1` [compound 6, 5-Bromo-2-(4-propoxybenzamido)benzoic acid] gave a minimum inhibitory concentration (MIC) of 128 µg/mL (≈ 338 µM).

For the next test, the system named is Micrococcus luteus ATCC 9341. The description is as above. It is filed as cell-based. The conditions noted are these: ATCC9341. On the procedure: as §3
Regarding `CCCOc1ccc(C(=O)Nc2ccc(Br)cc2C(=O)O)cc1` [compound 6, 5-Bromo-2-(4-propoxybenzamido)benzoic acid], the minimum inhibitory concentration (MIC) is 32 µg/mL (≈ 84.6 µM).

In the next test the test system is Proteus mirabilis ATCC 29936. Described as above. The conditions noted are these: ATCC29936. It is filed as cell-based. The method, then: as §3
Take `CCCOc1ccc(C(=O)Nc2ccc(Br)cc2C(=O)O)cc1` [compound 6, 5-Bromo-2-(4-propoxybenzamido)benzoic acid]: the minimum inhibitory concentration (MIC) is over 512 µg/mL.

The next test concerns Klebsiella pneumoniae ATCC 13883. Described as above. To be noted: ATCC13883. Format: cell-based. The method, then: as §3
In turn, `CCCOc1ccc(C(=O)Nc2ccc(Br)cc2C(=O)O)cc1` [compound 6, 5-Bromo-2-(4-propoxybenzamido)benzoic acid] yielded an MIC of over 512 µg/mL.

For another test, the system named is Staphylococcus aureus ATCC 25923. The test is described as above. It is filed as cell-based. To be noted: ATCC25923. On the procedure: as §3
With `CCCOc1ccc(C(=O)Nc2ccc(Br)cc2C(=O)O)cc1` [compound 6, 5-Bromo-2-(4-propoxybenzamido)benzoic acid], the MIC worked out at 16 µg/mL (≈ 42.3 µM).

The target in a further test is T1, PBP2a (Staphylococcus aureus, UniProt P07944).
T1 construct: made in house
T1 sequence (P07944 whole entry): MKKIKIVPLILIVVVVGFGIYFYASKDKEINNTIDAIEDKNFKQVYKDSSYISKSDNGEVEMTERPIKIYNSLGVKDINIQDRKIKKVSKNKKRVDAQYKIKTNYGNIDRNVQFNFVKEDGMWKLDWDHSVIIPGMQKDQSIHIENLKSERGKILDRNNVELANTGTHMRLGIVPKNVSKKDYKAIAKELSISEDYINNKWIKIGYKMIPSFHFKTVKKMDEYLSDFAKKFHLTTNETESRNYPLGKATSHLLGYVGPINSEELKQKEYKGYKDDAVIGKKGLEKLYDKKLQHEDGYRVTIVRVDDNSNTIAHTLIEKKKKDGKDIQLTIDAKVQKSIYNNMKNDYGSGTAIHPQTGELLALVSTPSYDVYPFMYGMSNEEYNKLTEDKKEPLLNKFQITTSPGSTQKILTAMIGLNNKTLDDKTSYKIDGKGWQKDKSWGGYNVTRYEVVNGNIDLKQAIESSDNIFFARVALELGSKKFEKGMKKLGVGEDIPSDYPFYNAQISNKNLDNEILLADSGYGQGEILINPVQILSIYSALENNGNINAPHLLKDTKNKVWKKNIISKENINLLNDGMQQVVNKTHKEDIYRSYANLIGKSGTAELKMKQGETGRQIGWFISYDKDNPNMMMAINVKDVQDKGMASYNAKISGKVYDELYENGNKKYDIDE
The test can be described thus: PBP2a enzymatic inhibition assay (fluorescein-labeled ampicillin, residual penicillin binding activity). It is filed as biochemical, Staphylococcus aureus ATCC 43300. To be noted: 4 h; residual activity of the enzyme at 1 mM inhibitor; 0.01% Triton X-100; mean of three experiments; read-out: PBP2a RA [%]. On the procedure: as §1, §2
Consider `O=S(=O)(Nc1ccc(O)cc1)c1cccc2cccnc12` [compound 3, N-(4-Hydroxyphenyl)quinoline-8-sulfonamide], for which the remaining activity at 1000 µM was 67%.
`CCOc1ccc(NS(=O)(=O)c2ccc(C(=O)O)cc2)cc1` [compound 4, 4-(N-(4-Ethoxyphenyl)sulfamoyl)benzoic acid]: the remaining activity at 1000 µM amounted to 83%.
Turning to `CCOc1ccc(S(=O)(=O)Nc2ccc(C(=O)O)cc2)cc1` [compound 5, 4-(4-Ethoxyphenylsulfonamido)benzoic acid], the remaining activity at 1000 µM came to 86%.
Regarding `CCCOc1ccc(C(=O)Nc2ccc(Br)cc2C(=O)O)cc1` [compound 6, 5-Bromo-2-(4-propoxybenzamido)benzoic acid], the remaining activity at 1000 µM was 0%.

The same test, now with this note: in the presence of 0.01% Triton X-100.
With `CCCOc1ccc(C(=O)Nc2ccc(Br)cc2C(=O)O)cc1` [compound 6, 5-Bromo-2-(4-propoxybenzamido)benzoic acid], the IC50 turned out to be 210 µM.

Another test concerns the target PBP2x 5204 (Streptococcus pneumoniae, UniProt P59676). The test is described as follows: PBP2x 5204 enzymatic inhibition assay (S2d hydrolysis, DTNB). The conditions noted are these: residual activity of the enzyme at 1 mM inhibitor; 240 min. It is filed as biochemical, Streptococcus pneumoniae strain 5204. The method, then:
PBP2x-5204 from Streptococcus pneumonia and N-benzoyl-D-alanyl-thioglycolate S2d[21], [22] were prepared as previously described. All assays with PBP2x 5204 were carried out in 96-well microtiter plates (Brand, Wertheim, Germany). PBP2x 5204 (0.6 µM) was incubated in the presence of the potential inhibitors in 10 mM sodium phosphate buffer (pH 7.0) containing 70 mM D-alanine and 0.01 mg/mL BSA, for 4 h at 25°C. This preincubation was used to also detect slow binding inhibitors. After the preincubation, the RA of PBP2x 5204 was determined. The initial rate of hydrolysis of 1 mM S2d in the presence of 1 mM DTNB was determined by monitoring the increase in absorbance at 412 nm (DTNB: ε[Δ ε] = […]) using a microplate absorbance reader (Power Wave X, Biotek Instruments, Winooski, U.S.A.). The rate of spontaneous hydrolysis of S2d in the presence of the potential inhibitors was also determined in the absence of PBP2x 5204. All of the assays were carried out in triplicate. The determination of the RA of PBP2x 5204 in the absence of inhibitors was carried out six times on each plate. A test compound was considered as an inhibitor if the RA was <80%. In this case, to reveal false positives, the assays were also carried out under the same conditions in the presence of 0.01% Triton X-100. As described in the literature, promiscuous inhibitors (false positives) are slow binding, noncompetitive inhibitors. To avoid detailed kinetic investigations, it is possible to identify such compounds by carrying out the assays in the presence of Triton X-100[14], [19]. Promiscuous inhibitors show no inhibition in the presence of Triton X-100. The IC50 values in the presence of Triton X-100 were determined if the RAs were <50%. (RA: ∼50%, IC50∼c, c: concentration of compound in the assay; RA >50%, IC50 > c). The RA was measured over a range of concentrations, from which the IC50 values were determined by non-linear regression analysis, using Sigma Plot (Systat software) and fitting the data to the equation y = y0+(a×b)/(b+x)[23].
As to `O=S(=O)(Nc1ccc(O)cc1)c1cccc2cccnc12` [compound 3, N-(4-Hydroxyphenyl)quinoline-8-sulfonamide], the “PBP2x5204 RA [%]” value was 80%.
Still for that read-out and setting: to `CCOc1ccc(NS(=O)(=O)c2ccc(C(=O)O)cc2)cc1` [compound 4, 4-(N-(4-Ethoxyphenyl)sulfamoyl)benzoic acid] belongs 101%.
On to `CCOc1ccc(S(=O)(=O)Nc2ccc(C(=O)O)cc2)cc1` [compound 5, 4-(4-Ethoxyphenylsulfonamido)benzoic acid], for which the “PBP2x5204 RA [%]” value worked out at 81%.
Same read-out and setting: to `CCCOc1ccc(C(=O)Nc2ccc(Br)cc2C(=O)O)cc1` [compound 6, 5-Bromo-2-(4-propoxybenzamido)benzoic acid] belongs 41%.
